From paper PMC10035904, “Synthesis of novel sulphamethoxazole derivatives and exploration of their anticancer and antimicrobial properties” (PLOS ONE, 2023)
Converted amounts (≈) assume the structure as drawn.

Columns and labels:
[1] = tested on: HF, PPC-1, and CaKi-1 cells; assay: MTT cell viability screen at 100 μM (cell line not given); type: cell-based, human; settings: 72 h, cell line not stated
Method: The effect of synthesized compounds on cell viability was studied using 3-(4,5-dimethylthiazol-2-yl)-2,5-diphenyltetrazolium bromide (MTT; Sigma-Aldrich Co., St Louis, MO, USA) assay, as described elsewhere. Briefly, HF, PPC-1, and CaKi-1 cells were seeded in 96-well plates (Corning) in triplicates at a volume of 100 μL at a concentration of 4 × 10^3 cells/well. After 24 h of incubation, the cells were treated with 100 μM of tested compounds. After 72 h, the MTT reagent (at 0.5 mg/mL concentration) has been added to the wells, and cells were incubated for 4 h. Then the medium was aspirated, and the formed purple crystals were dissolved in 100 μL DMSO (Sigma-Aldrich Co.). The absorbance was measured at 570 and 630 nm using a multi-detection microplate reader. The compound effect on cell viability was calculated using a formula (1): Relativecellviability%=A−A0/ANC−A0 (1) Where: […]

[2] = tested on: Enterococcus faecalis ATCC 29212; assay: Serial broth dilution in liquid medium, E. faecalis; type: cell-based; settings: ATCC29212, Mueller-Hinton broth, 24 hours, 50% reduction of microbial growth, n = 3
Method: (§1) Antibacterial and antifungal susceptibility to the compound 16b was tested using a serial broth dilution technique in Mueller-Hinton broth II (BBL, Cockeysville, USA), as described elsewhere. All procedures were done in aseptic conditions. Standard bacterial and fungal cultures were used: Staphylococcus aureus ATCC 25923, Staphylococcus epidermidis ATCC 12228, Escherichia coli ATCC 25922, Enterococcus faecalis ATCC 29212, Klebsiella pneumoniae ATCC 33499, Pseudomonas aeruginosa ATCC 27853, Proteus mirabilis ATCC 12459, Bacillus cereus ATCC 8035, and Candida albicans ATCC 60193. Standard cultures of nonsporic bacteria S. aureus, S. epidermidis, E. coli, E. faecalis, K. pneumoniae, P. aeruginosa and P. mirabilis were cultivated for 20–24 hours at 37°C in Mueller-Hinton Agar (BBL, Cockeysville, USA). A bacterial suspension was prepared from cultivated bacterial cultures in physiological solution according to turbidity standard 0.5 McFarland. Standard culture of sporic bacteria B. cereus was cultivated for 7 days at 37°C in Mueller-Hinton II Agar. […] Then the absorbance was measured at 600 nm using a multi-detection microplate reader. […]

[3] = tested on: Escherichia coli ATCC 25922; assay: Serial broth dilution in liquid medium, E. coli; type: cell-based; settings: ATCC25922, Mueller-Hinton broth, 24 hours, n = 3
Method: as §1

[4] = tested on: Klebsiella pneumoniae ATCC 33499; assay: Serial broth dilution in liquid medium, K. pneumoniae; type: cell-based; settings: ATCC33499, Mueller-Hinton broth, 24 hours, n = 3
Method: as §1

[5] = tested on: Pseudomonas aeruginosa ATCC 27853; assay: Serial broth dilution in liquid medium, P. aeruginosa; type: cell-based; settings: ATCC27853, Mueller-Hinton broth, 24 hours, n = 3
Method: as §1

[6] = tested on: Staphylococcus epidermidis ATCC 12228; assay: Serial broth dilution in liquid medium, S. epidermidis; type: cell-based; settings: Mueller-Hinton broth, 24 hours; result in words
Method: as §1

[7] = tested on: Staphylococcus epidermidis ATCC 12228; assay: Serial dilution on solid agar, S. epidermidis; type: cell-based; settings: ATCC12228, solid Mueller-Hinton agar, 24 hours
Method: (§2) Antimicrobial activity of compound 16b on solid agar was tested using the same microbial cultures, and the same suspension preparation procedure, as described in above section. All procedures were done in aseptic conditions.
(§3) Mueller-Hinton agar was boiled and kept at to 37 °C during the whole procedure. Compound 16b solution was prepared in DMSO right before experiment. The Agar was mixed with compound solution at different ratios to make the final compound concentrations of 1 mM, 400 μM, 200 μM and 100 μM. Then 10 ml of prepared solution was poured into sterile Petri dishes (85 mm in diameter) and kept in aseptic conditions while the agar solidified. The agar with 0.5% of DMSO served as a negative control. With the help of loop standard microbial cultures by 0.1 ml were poured on the surface of prepared agar with investigative compound. Then Petri dishes were kept for 24 hours in thermostatic conditions.
(§4) The minimal dilution, i.e. the lowest concentration in μg/mL of the investigative and comparison compounds that inhibited visible growth of microorganisms was the minimal inhibitory concentration (MIC).

[8] = tested on: Escherichia coli ATCC 25922; assay: Serial dilution on solid agar, E. coli; type: cell-based; settings: ATCC25922, solid Mueller-Hinton agar, 24 hours
Method: as §2, §3, §4

[9] = tested on: Pseudomonas aeruginosa ATCC 27853; assay: Serial dilution on solid agar, P. aeruginosa; type: cell-based; settings: ATCC27853, solid Mueller-Hinton agar, 24 hours
Method: as §2, §3, §4

EC50 [2]: 90 ± 6 µM
EC50 [3]: > 100 µM
EC50 [4]: > 100 µM
EC50 [5]: > 100 µM
MIC [7]: 100 µM (≈ 46.2 µg/mL)
MIC [8]: 400 µM (≈ 185 µg/mL)
MIC [9]: > 1000 µM
melting point: 221 to 222 °C
SMILES: Cc1cc(NS(=O)(=O)c2ccc(NCCC(=O)NN=Cc3ccc([N+](=O)[O-])o3)cc2)no1 [Compound 16b, N-(5-methylisoxazol-3-yl)-4-((3-(2-((5-nitrofuran-2-yl)methylene)hydrazineyl)-3-oxopropyl)amino)-benzenesulfonamide]
reduced cell viability up to about [1]: about 40%
sensitivity of S. epidermidis in liquid medium [6]: most sensitive
